Laboratory results as given in patent US20230257359A1, “4-ARYLQUINAZOLINE DERIVATIVES AS METHIONINE ADENOSYLTRANSFERASE 2A INHIBITORS” (IDEAYA BIOSCIENCES, INC., priority 2020, published 2023).
pIC50: −log10 of the molar value.

How the values were obtained:
[1] = target: T1, hMAT2A (Homo sapiens, UniProt P31153); assay: Malachite Green Assay (MAT2A enzyme inhibition); type: biochemical; parameters: amino acids 1-395; purchased Cepter; conditions: hMAT2A 50 nM, substrates 500 uM each, 1 hour
Protocol: (§1) The ability of the compound of present disclosure to inhibit MAT2A enzyme was determined using the Malachite Green or Phosphate Sensor Fluorescence Assay described below.
Biologic Example A. Malachite Green Assay
Enzyme: MAT2A • hMAT2A: 50 nM, Cepter, 10 mg/mL (234 μM), amino acids 1-395 • Substrates: 500 uM each • Reaction time: 1 hour
L-methionine Substrate: Alfa Aesar catalog #J61904
ATP Substrate: Alfa Aesar cat #J60336
Malachite Green Detection Reagent: Millipore Sigma catalog #MAK307-1KT
Assay buffer: 50 mM Tris, pH 7.5/50 mM KCl/10 mM MgCl2/0.01% Brij-35/1 mM DTT/0.1% BGG
0% inhibition control: DMSO
100% inhibition control: No enzyme
5 μL of 3× final concentration test compounds in DMSO or DMSO were transferred to the appropriate wells of a microtiter plate and the plate was centrifuged at 1000 rpm for 1 minute. 5 μL of 3× final concentration MAT2A enzyme in assay buffer or assay buffer alone was transferred to the appropriate wells and the plate was centrifuged at 1000 rpm for 1 minute. The plate was incubated at room temperature for 15 minutes and then 5 μL of 3× the L-methionine and ATP substrate mixture in assay buffer was transferred to all the test wells. The plate was centrifuged at 1000 rpm for 1 minute and then incubated at room temperature for 1 hour. 5 μL of malachite green detection reagent was added to all the test wells and the plate was centrifuged at 1000 rpm for 1 minute and then incubated at room temperature for 30 minutes. The plate was read for absorbance at 620 nm on a plate reader (e.g., Infinite M1000). The high control (DMSO) with high absorbance represents no inhibition of enzymatic reaction while the low control (no enzyme) with low absorbance represents full inhibition of enzymatic reaction.

[2] = target: T1, hMAT2A; assay: Phosphate Sensor Fluorescence Assay (MAT2A enzyme inhibition); type: biochemical; parameters: Human MAT2A: Cepter, amino acids 1-395; purchased Cepter clone ID 329, lot 00023-123; clone ID 334, lot 00023-148; conditions: L-methionine and ATP 500 uM, 1 hour
Protocol: as §1
Biologic Example B. Phosphate Sensor Fluorescence Assay
MAT2A enzyme is incubated with a test compound in DMSO or DMSO and its substrates (L-methionine and ATP) in a microtiter plate. The enzymatic reaction is stopped by the addition of Working Phosphate Sensor Mixture. The plate is analyzed for fluorescence at 450 nm. The high control (DMSO with enzyme and its substrates) gives high fluorescence which represents no inhibition of enzymatic activity while the low control (DMSO with MAT2A substrates and no enzyme) gives low fluorescence which represents full inhibition of enzymatic activity.
Human MAT2A: Cepter, amino acids 1-395
Assay Buffer: 50 mM Tris, pH 7.5/50 mM KCl/10 mM MgCl2/0.01% Brij-35/1 mM DTT/0.1% BGG/40 nM PNP/6 uM 7-MEG
MAT2A: 10 nM for Cepter clone ID 329, lot 00023-123 before the addition of Working Phosphate Sensor Mixture • 5 nM for Cepter clone ID 334, lot 00023-148 before the addition of Working Phosphate Sensor Mixture
L-methionine: 500 uM before the addition of Working Phosphate Sensor Mixture
ATP: 500 uM before the addition of Working Phosphate Sensor Mixture
For the assay, a mixture of 1 mM L-methionine/1 mM ATP (2× final pre-stopped concentration) in assay buffer; MAT2A (2× final pre-stopped concentration) in Assay Buffer and Working Phosphate Sensor Mixture (1.5 uM Phosphate Sensor/30 mM EDTA in Assay Buffer, which is 3× final concentrations) were prepared. Test compounds or DMSO were added to the appropriate well suing D300e digital dispenser. 5 μl/well of Assay Buffer was added to the wells corresponding to the negative control and 5 μl/well of MAT2A was added to all the wells except for those corresponding to the negative control. After incubating the plate at room temperature for 15 minutes, 5 μl/well of the 1 mM L-methionine/1 mM ATP mixture was added to all wells. The plate was centrifuged at 1000 rpm for 1 minute and then incubated at room temperature for 1 hour. 5 μl of the Working Phosphate Sensor Mixture was added to all wells and the plate was centrifuged at 1000 rpm for 1 minute. The plate was read for fluorescence at 450 nm after exciting at 430 nm.
Percent inhibition was calculated in Chemical and Biological Information System (CBIS), (ChemInnovation Software Inc.). Curves were fitted by CBIS as % inhibition vs. log [compound concentration] using a 4-parameter inhibition model.
Fit=(A+((B−A)/(1+((C/x)^D))))

T1 sequence (P31153 whole entry, the tested form may be a part): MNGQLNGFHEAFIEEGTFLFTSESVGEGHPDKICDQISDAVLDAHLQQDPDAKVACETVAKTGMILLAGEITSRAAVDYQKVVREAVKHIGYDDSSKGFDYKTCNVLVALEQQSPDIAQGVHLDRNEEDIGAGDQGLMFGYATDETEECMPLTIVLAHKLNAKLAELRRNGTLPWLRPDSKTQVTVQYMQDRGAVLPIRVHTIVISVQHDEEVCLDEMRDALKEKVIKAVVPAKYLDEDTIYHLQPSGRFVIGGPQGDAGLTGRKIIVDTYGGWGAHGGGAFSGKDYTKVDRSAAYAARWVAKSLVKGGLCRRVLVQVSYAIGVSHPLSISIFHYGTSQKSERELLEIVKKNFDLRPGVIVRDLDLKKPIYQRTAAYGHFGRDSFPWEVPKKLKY

Row | pIC50 ([1]; class symbols) | pIC50 ([2]; class symbols) | pIC50 ([1]; numeric bound) | pIC50 ([2]; numeric bound) | Structure (SMILES)
1 | 6.70 to 8.00 | 6.70 to 8.00 |  |  | O=c1nc(-c2ccccc2)c2cc(Cl)ccc2[nH]1 [1.001, 6-chloro-4-phenylquinazolin-2-ol]
2 |  |  | < 5.00 | < 5.00 | Clc1ccc2nc(Cl)nc(-c3ccccc3)c2c1 [1.002, 2,6-dichloro-4-phenylquinazoline]
3 |  | 6.30 to 6.70 |  |  | Oc1nc(-c2cccnc2Cl)c2cc(Br)ccc2n1 [1.003, 6-bromo-4-(2-chloropyridin-3-yl)quinazolin-2-ol]
4 |  |  | < 5.00 | < 5.00 | CC(C)(C)OC(=O)N1CC(Oc2nc(-c3ccccc3)c3cc(Cl)ccc3n2)C1 [1.004, tert-butyl 3-((6-chloro-4-phenylquinazolin-2-yl)oxy)azetidine-1-carboxylate]
5 |  |  | < 5.00 | < 5.00 | N#Cc1nc(-c2ccccc2)c2cc(Cl)ccc2n1 [1.005, 6-chloro-4-phenylquinazoline-2-carbonitrile]
6 |  |  |  | < 5.00 | O=C(O)c1nc(-c2ccccc2)c2cc(Cl)ccc2n1 [1.006, 6-chloro-4-phenylquinazoline-2-carboxylic acid]
7 |  |  | < 5.00 | < 5.00 | CNC(=O)c1nc(-c2ccccc2)c2cc(Cl)ccc2n1 [1.008, 6-chloro-N-methyl-4-phenylquinazoline-2-carboxamide]
8 |  |  | < 5.00 | < 5.00 | OCc1nc(-c2ccccc2)c2cc(Cl)ccc2n1 [1.009]
9 |  |  | < 5.00 | < 5.00 | N#CCc1nc(-c2ccccc2)c2cc(Cl)ccc2n1 [1.010, 2-(6-chloro-4-phenylquinazolin-2-yl)acetonitrile]
10 |  |  | < 5.00 | < 5.00 | NC(=O)Cc1nc(-c2ccccc2)c2cc(Cl)ccc2n1 [1.011, 2-(6-chloro-4-phenylquinazolin-2-yl)acetamide]
11 |  |  | < 5.00 | < 5.00 | COC(=O)Cc1nc(-c2ccccc2)c2cc(Cl)ccc2n1 [1.012, methyl 2-(6-chloro-4-phenylquinazolin-2-yl)acetate]
12 | 6.70 to 8.00 | 6.70 to 8.00 |  |  | O=c1nc(-c2ccccc2)c2cc(Br)ccc2[nH]1 [1.013, 6-bromo-4-phenylquinazolin-2-ol]
13 |  | 6.00 to 6.30 |  |  | Cc1ccc2[nH]c(=O)nc(-c3ccccc3)c2c1 [1.014, 6-methyl-4-phenylquinazolin-2-ol]
14 |  | 6.70 to 8.00 |  |  | Oc1nc(-c2ccccc2)c2cc(C(F)(F)F)ccc2n1 [1.015, 4-phenyl-6-(trifluoromethyl)quinazolin-2-ol]
15 |  | 6.70 to 8.00 |  |  | Cc1ccccc1-c1nc(O)nc2ccc(C3CC3)cc12 [1.016, 6-cyclopropyl-4-(o-tolyl)quinazolin-2-ol]
16 |  | 5.00 to 6.00 |  |  | Oc1nc(-c2cccnc2)c2cc(Br)ccc2n1 [1.017, 6-bromo-4-(pyridin-3-yl)quinazolin-2-ol]
17 |  | 5.00 to 6.00 |  |  | Cc1ccc2nc(O)nc(-c3ccccc3)c2n1 [1.018, 6-methyl-4-phenylpyrido[3,2-d]pyrimidin-2-ol]
18 |  | 6.70 to 8.00 |  |  | COc1cc(C2CC2)cc2c(-c3ccccc3)nc(O)nc12 [1.019, 6-cyclopropyl-8-methoxy-4-phenylquinazolin-2-ol]
19 |  | 6.70 to 8.00 |  |  | Cc1ncccc1-c1nc(O)nc2ccc(Br)cc12 [1.020, 6-bromo-4-(2-methylpyridin-3-yl)quinazolin-2-ol]
20 |  | 5.00 to 6.00 |  |  | Oc1nc(-c2cccnc2C(F)(F)F)c2cc(Br)ccc2n1 [1.021, 6-bromo-4-(2-(trifluoromethyl)pyridin-3-yl)quinazolin-2-ol]
